Measurements: article PMC9433906, “Evaluation of the biotechnological potential of peptide Cupiennin 1a and analogs” (Frontiers in Microbiology, 2022)
In brackets after ≈: the same amount, converted by molar mass. Where a SMILES comes first, the peptide text is derived from it.

Tests used:
[1] = system: C. parapsilosis (ATCC22019); experiment: Broth microdilution MIC (CLSI M27-A3 with modifications); assay type: cell-based, Candida parapsilosis; conditions: 2.5 × 10^3 CFU.ml^−1, Sabouraud medium, 24 h at 30°C, absorbance 595 nm
Method: The broth microdilution method was performed according to the Clinical and Laboratory Standards Institute Guideline M27-A3 with modifications to determine the Minimum Inhibitory Concentration (MIC; [Clinical Laboratory Standards Institute, 2008]).
Initially, the fungus C. parapsilosis (ATCC22019) was grown in a Petri dish containing Sabouraud Dextrose Agar medium (Dextrose 40 g/L; Peptic digestion of animal tissue 5.0 g.L^−1; and Agar 15 g.L^−1) for 48 h. Subsequently, a pre-inoculum was performed from a yeast colony that was placed in 10 ml of liquid Sabouraud medium and incubated for 16 h at 28°C, with a constant rotation of 200 rpm. After the incubation period, 2.5 × 10^3 CFU.ml^−1 of fungus per well was incubated with different peptide micromolar concentrations (Table 1) to assess the MIC for each peptide.
Fungal cells incubated with Sabouraud medium were used as negative control, while positive control was represented by fungal cells incubated in Sabouraud medium and amphotericin B (10 μM). Subsequently, plates were incubated for 24 h at 30°C. After this period, the absorbance was read (595 nm) in a BioTek spectrophotometer (PowerWaveTM HT Microplate Reader), and data of antifungal activity with percentage of inhibition of peptides were plotted in GraphPad Prism 8 Software.

[2] = system: Human fibroblast (Hfib) cells; experiment: MTT cytotoxicity test against human fibroblasts (Hfib); assay type: cell-based; conditions: 24 h; for cytotoxicity against Hfib cells at the other concentrations (in words): concentrations other than the highest
Method: Human fibroblast (Hfib) cell cultures were cultivated in Dulbecco’s Modified Eagle Medium (DMEM; Sigma-Aldrich, United States) supplemented with 10% fetal bovine serum (Sigma-Aldrich). Hfib were cultured in a humidified incubator containing 5% CO2 at 37°C and 95% humidity.
Hfib cell line was seeded onto 96-well plates (1 × 10^3 cells/well, 100 μl) before treatment and allowed to adhere and grow over the 24 h period. Each peptide was subsequently added at different micromolar concentrations. The results were evaluated using GraphPad Prism 8 software, where a One-Way ANOVA statistical test followed by Bonferroni’s multiple comparisons test was performed.
Cell viability analyses were performed in technical and biological replicates, and readings were obtained after 24 h of contact with peptides. At the end of the incubation period, MTT (Sigma-Aldrich, United States) was used to assess the ability of living cells to reduce salt 3-[4,5-dimethylthiazole-2-yl]-2,5-diphenyltetrazolium bromide for formazan production. Plates were read at 570 ηm ([Mosmann, 1983]) and results were expressed in the percentage of living cells. The results were analyzed using GraphPad Prism 8 software where a One-Way ANOVA statistical test was followed by Bonferroni’s multiple comparisons test.

[3] = system: Klebsiella pneumoniae carbapenemase (KPC 1410503); assay type: cell-based; conditions: K. pneumoniae carbapenemase—KPC clinical isolate 1410503; 5×10^5 CFU.ml^−1, Mueller-Hinton Broth, 37°C, 24 h, OD 595 nm, biological triplicates; NE = MIC value not found
Method: Susceptibility tests were performed using clinical isolates of Klebsiella pneumoniae carbapenemase (KPC 1410503) and methicillin-resistant S. aureus (MRSA 3730592). Tests were also performed with ATCC (American Type Culture Collection) isolates of K. pneumoniae (ATCC 13883) and S. aureus (ATCC 25923).
Two multidrug-resistant clinical isolates and two ATCC isolates were chosen to perform microbial susceptibility testing as models for studies with bacteria susceptible to antimicrobials found in the Gram-Positive and Gram-Negative groups of bacteria.
The broth microdilution method was performed according to the Clinical and Laboratory Standards Institute (CLSI) M07-A10 protocol to determine the Minimum Inhibitory Concentration (MIC; [Clinical Laboratory Standards Institute, 2015]). The assay was performed on 96-well microplates (TPP, United States), containing 5×10^5 CFU.ml^−1 of each tested bacterium per well and different peptide micromolar concentrations (Table 1) in a final volume of 100 μl of Mueller-Hinton Broth (MH). Negative control was represented by bacteria incubated in MH medium, while positive control was represented by culture incubated in MH medium with Amikacin. Plates were kept under agitation at 37°C in a BioTek spectrophotometer (PowerWaveTM HT Microplate Reader) with optical density (OD) readings at 595 nm every 30 min for 24 h. Inhibition results were analyzed using GraphPad Prism 8 software by comparing the OD from negative control wells (100%) to those containing peptides. All tests were performed in biological triplicates.

Row | SMILES | Minimum inhibitory concentration (MIC) [1] | cytotoxic effect on Hfib cells (in words) ([2]; all concentrations tested) | activity on Hfib cells, reducing the cell viability (in words) ([2]; 35.4 μM) | Hfib cells eradicated ([2]; 70.8 μM) | Minimum inhibitory concentration (MIC) [3] | Hfib cells killed at the highest concentration ([2]; 70.43 (highest concentration)) | cytotoxicity against Hfib cells at the other concentrations (in words) [2] | Hfib cells killed at the highest concentration ([2]; 68.3 (highest concentration))
1 | CC(C)C[C@H](NC(=O)[C@H](C)NC(=O)CNC(=O)[C@H](Cc1ccccc1)NC(=O)CN)C(=O)N[C@@H](Cc1ccccc1)C(=O)N[C@@H](CCCCN)C(=O)N[C@@H](CCCNC(=N)N)C(=O)N[C@@H](CC(C)C)C(=O)N[C@@H](C)C(=O)N[C@@H](CCCCN)C(=O)N[C@@H](CCCCN)C(=O)N[C@H](C(=O)N[C@@H](C)C(=O)N[C@@H](CCCCN)C(=O)N[C@H](C(=O)N[C@H](C(=O)N[C@@H](C)C(N)=O)C(C)C)[C@@H](C)O)C(C)C [Peptide R3b] (H-GFGALFKRLAKKVAKTVA-NH2) | 33.60 µM (≈ 64 µg/mL) | did not show any cytotoxic effect | – | – | – | – | – | –
2 | CC(C)C[C@H](NC(=O)[C@H](C)NC(=O)CNC(=O)[C@H](Cc1ccccc1)NC(=O)CN)C(=O)N[C@@H](Cc1ccccc1)C(=O)N[C@@H](CCCCN)C(=O)N[C@@H](Cc1ccccc1)C(=O)N[C@@H](CC(C)C)C(=O)N[C@@H](C)C(=O)N[C@@H](CCCCN)C(=O)N[C@@H](C)C(=O)N[C@H](C(=O)N[C@@H](C)C(=O)N[C@@H](CCCCN)C(=O)N[C@@H](C)C(=O)N[C@H](C(=O)N[C@@H](C)C(N)=O)C(C)C)C(C)C [Peptide R6b] (H-GFGALFKFLAKAVAKAVA-NH2) | 70.8 µM (≈ 128 µg/mL) | – | slight activity | 100% | – | – | – | –
3 | CC(C)C[C@H](NC(=O)[C@H](C)NC(=O)CNC(=O)[C@H](Cc1ccccc1)NC(=O)CN)C(=O)N[C@@H](Cc1ccccc1)C(=O)N[C@@H](CCCCN)C(=O)N[C@@H](CCCNC(=N)N)C(=O)N[C@@H](CC(C)C)C(=O)N[C@@H](C)C(=O)N[C@@H](CCCCN)C(=O)N[C@@H](C)C(=O)N[C@H](C(=O)N[C@@H](C)C(=O)N[C@@H](CCCCN)C(=O)N[C@@H](C)C(=O)N[C@H](C(=O)N[C@@H](C)C(N)=O)C(C)C)C(C)C [Peptide R8b] (H-GFGALFKRLAKAVAKAVA-NH2) | 35.21 µM (≈ 64 µg/mL) | – | – | – | 35.21 µM (≈ 64 µg/mL) | 100% | not harmful | –
4 | CC(C)C[C@H](NC(=O)[C@H](CCCNC(=N)N)NC(=O)[C@H](CCCCN)NC(=O)[C@H](Cc1ccccc1)NC(=O)[C@H](CC(C)C)NC(=O)[C@H](CCCCN)NC(=O)CNC(=O)[C@H](Cc1ccccc1)NC(=O)CN)C(=O)N[C@@H](C)C(=O)N[C@@H](CCCCN)C(=O)N[C@@H](C)C(=O)N[C@H](C(=O)N[C@@H](C)C(=O)N[C@@H](CCCCN)C(=O)N[C@@H](C)C(=O)N[C@H](C(=O)N[C@@H](C)C(N)=O)C(C)C)C(C)C [Peptide R10b] (H-GFGKLFKRLAKAVAKAVA-NH2) | 34.15 µM (≈ 64 µg/mL) | – | – | – | 17.07 µM (≈ 32 µg/mL) | – | not harmful | 100%
